Measured values taken from publication doi:10.1101/2025.11.20.689572v1 (biorxiv, 2025).
Like-named read-outs stand apart in the source and are kept apart here.

Legend:
5-HT1F = target: T1, 5-HT1F (Homo sapiens, UniProt P30939); assay: competitive radioligand binding, HEK293 membranes
T1 construct: gene HTR1F; full-length receptor; HEK293 cell membranes
Description: competitive radioligand binding, HEK293 membranes on 5-HT1F

KOR = target: T2, KOR (Homo sapiens, UniProt P41145); assay: competitive radioligand binding, HEK293 membranes
T2 construct: gene OPRK1; full-length receptor; HEK293 cell membranes
Description: competitive radioligand binding, HEK293 membranes on KOR

5-HT2A = target: T3, 5-HT2A (Homo sapiens, UniProt P28223); assay: competitive radioligand binding, HEK293 membranes
T3 construct: gene HTR2A; full-length receptor; HEK293 cell membranes
Description: competitive radioligand binding, HEK293 membranes on 5-HT2A

CHRM4 = target: T4, CHRM4 (Homo sapiens, UniProt P08173); assay: cell-based; set-up: species or system HEK293; TRUPATH BRET2 G-protein dissociation; antagonist mode against agonist EC80; conditions: agonist mode, % of control agonist
T4 sequence (P08173 1-479): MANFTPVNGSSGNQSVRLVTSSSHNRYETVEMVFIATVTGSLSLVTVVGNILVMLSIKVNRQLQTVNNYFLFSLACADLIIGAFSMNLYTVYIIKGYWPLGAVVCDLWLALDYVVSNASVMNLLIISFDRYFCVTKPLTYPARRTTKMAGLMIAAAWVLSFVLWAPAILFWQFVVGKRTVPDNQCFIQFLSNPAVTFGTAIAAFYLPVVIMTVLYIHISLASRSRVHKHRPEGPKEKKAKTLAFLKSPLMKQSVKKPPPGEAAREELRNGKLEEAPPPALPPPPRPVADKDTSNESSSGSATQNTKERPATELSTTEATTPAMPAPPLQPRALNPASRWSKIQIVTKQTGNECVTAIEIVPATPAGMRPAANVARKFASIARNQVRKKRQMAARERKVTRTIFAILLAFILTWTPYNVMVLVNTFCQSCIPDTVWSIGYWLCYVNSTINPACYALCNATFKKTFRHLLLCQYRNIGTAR

CHRM5 = target: T5, CHRM5 (Homo sapiens, UniProt P08912); assay: cell-based; set-up: species or system HEK293; TRUPATH BRET2 G-protein dissociation; antagonist mode against agonist EC80; conditions: agonist mode, % of control agonist
T5 sequence (P08912 1-532): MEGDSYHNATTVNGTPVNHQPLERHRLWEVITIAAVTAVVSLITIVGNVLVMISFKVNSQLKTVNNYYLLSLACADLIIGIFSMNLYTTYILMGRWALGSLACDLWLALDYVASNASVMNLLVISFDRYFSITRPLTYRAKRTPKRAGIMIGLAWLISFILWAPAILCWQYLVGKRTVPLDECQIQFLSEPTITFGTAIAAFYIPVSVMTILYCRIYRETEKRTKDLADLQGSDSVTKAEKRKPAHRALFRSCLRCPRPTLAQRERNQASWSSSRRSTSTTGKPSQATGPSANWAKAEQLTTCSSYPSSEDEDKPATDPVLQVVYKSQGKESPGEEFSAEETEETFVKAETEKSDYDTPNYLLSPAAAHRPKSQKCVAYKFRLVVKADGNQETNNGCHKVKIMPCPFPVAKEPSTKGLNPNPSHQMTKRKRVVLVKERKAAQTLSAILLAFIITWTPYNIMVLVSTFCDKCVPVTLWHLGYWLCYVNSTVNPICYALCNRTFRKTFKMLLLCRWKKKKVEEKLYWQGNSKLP

HRH3 = HRH3 (Homo sapiens, UniProt Q9Y5N1); assay: cell-based; set-up: species or system HEK293; TRUPATH BRET2 G-protein dissociation; antagonist mode against agonist EC80; conditions: agonist mode, % of control agonist
HRH4 = HRH4 (Homo sapiens, UniProt Q9H3N8); assay: cell-based; set-up: species or system HEK293; TRUPATH BRET2 G-protein dissociation; antagonist mode against agonist EC80; conditions: agonist mode, % of control agonist
HTR1D = HTR1D (Homo sapiens, UniProt P28221); assay: cell-based; set-up: species or system HEK293; TRUPATH BRET2 G-protein dissociation; antagonist mode against agonist EC80; conditions: agonist mode, % of control agonist
CHRM2 = target: T6, CHRM2 (Homo sapiens, UniProt P08172); assay: cell-based; set-up: species or system HEK293; GloSensor-22F cAMP assay, Gi-mediated inhibition of isoproterenol-stimulated cAMP; antagonist mode against agonist EC80; conditions: Assay=Gi, agonist mode, % of control agonist
T6 sequence (P08172 1-466): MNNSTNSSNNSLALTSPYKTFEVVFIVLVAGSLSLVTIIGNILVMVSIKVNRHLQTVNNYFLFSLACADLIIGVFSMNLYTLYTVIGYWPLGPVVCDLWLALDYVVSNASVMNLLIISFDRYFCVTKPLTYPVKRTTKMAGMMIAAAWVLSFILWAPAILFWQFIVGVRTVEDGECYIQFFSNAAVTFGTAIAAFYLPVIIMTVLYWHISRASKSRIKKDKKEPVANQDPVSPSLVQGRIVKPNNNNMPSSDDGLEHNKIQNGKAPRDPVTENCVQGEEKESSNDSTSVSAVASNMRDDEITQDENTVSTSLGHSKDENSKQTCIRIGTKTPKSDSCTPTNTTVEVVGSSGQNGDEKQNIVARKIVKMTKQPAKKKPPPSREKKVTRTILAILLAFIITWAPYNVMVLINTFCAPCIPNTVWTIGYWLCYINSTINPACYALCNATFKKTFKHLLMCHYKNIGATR

[1] = HEK293, read-out: N-Desmethyl Xanomeline, Assay=Gi1
[2] = HEK293, read-out: N-Desmethyl Xanomeline, Assay=Gi2
[3] = HEK293, read-out: N-Desmethyl Xanomeline, Assay=Gi3
[4] = HEK293, read-out: N-Desmethyl Xanomeline, Assay=GoA
[5] = HEK293, read-out: N-Desmethyl Xanomeline, Assay=GoB
[6] = HEK293, read-out: N-Desmethyl Xanomeline, Assay=Gz
[7] = HEK293, read-out: Xanomeline, Assay=Gi1
[8] = HEK293, read-out: Xanomeline, Assay=Gi2
[9] = HEK293, read-out: Xanomeline, Assay=Gi3
[10] = HEK293, read-out: Xanomeline, Assay=GoA
[11] = HEK293, read-out: Xanomeline, Assay=GoB
[12] = HEK293, read-out: Xanomeline, Assay=Gz

## CCCCCCOc1nsnc1C1=CCCNC1 [N-desmethylxanomeline]
5-HT1F
  Ki: 224 nM
KOR
  Ki: 1020 nM
5-HT2A
  Ki: 537 nM
CHRM4; [1]
  Emax: 94.1%
CHRM4; [2]
  Emax: 106%
CHRM4; [3]
  Emax: 81.3%
CHRM4; [4]
  Emax: 100%
CHRM4; [5]
  Emax: 102%
CHRM4; [6]
  Emax: 89%
CHRM5; HEK293, read-out: N-Desmethyl Xanomeline, Assay=Gq
  Emax: 80.4%
HRH3; [1]
  Emax: 75.4%
HRH3; [2]
  Emax: 65.4%
HRH3; [3]
  Emax: 84%
HRH3; [4]
  Emax: 79.3%
HRH3; [5]
  Emax: 82.8%
HRH4; [1]
  Emax: 79.3%
HRH4; [2]
  Emax: 81%
HRH4; [3]
  Emax: 86.8%
HRH4; [4]
  Emax: 81.7%
HTR1D; [1]
  Emax: 88.1%
HTR1D; [2]
  Emax: 66.3%
HTR1D; [3]
  Emax: 82.1%
HTR1D; [4]
  Emax: 92.2%
HTR1D; [5]
  Emax: 73.8%
HTR1D; [6]
  Emax: 93.6%
CHRM2; HEK293, read-out: N-Desmethyl Xanomeline
  Emax: 107%

## CCCCCCOc1nsnc1C1=CCCN(C)C1 [Xanomeline]
5-HT1F
  Ki: 759 nM
KOR
  Ki: 1780 nM
5-HT2A
  Ki: 251 nM
CHRM4; [7]
  Emax: 98.4%
CHRM4; [8]
  Emax: 110%
CHRM4; [9]
  Emax: 86%
CHRM4; [10]
  Emax: 107%
CHRM4; [11]
  Emax: 106%
CHRM4; [12]
  Emax: 94.1%
CHRM5; HEK293, read-out: Xanomeline, Assay=Gq
  Emax: 82%
HRH3; [8]
  Emax: 28.5%
HRH3; [10]
  Emax: 25.7%
HRH3; [11]
  Emax: 19%
HRH4; [7]
  Emax: 49.5%
HRH4; [8]
  Emax: 65.8%
HRH4; [9]
  Emax: 40.2%
HRH4; [10]
  Emax: 37.4%
HTR1D; [7]
  Emax: 69.7%
HTR1D; [8]
  Emax: 52.7%
HTR1D; [9]
  Emax: 66.7%
HTR1D; [10]
  Emax: 86.5%
HTR1D; [11]
  Emax: 63.4%
HTR1D; [12]
  Emax: 85.3%
CHRM2; HEK293, read-out: Xanomeline
  Emax: 85.9%
